“And” between values parts separate entries of the source, which are not always exact repeats. Identical values can stand only once. Like-named read-outs stand apart in the source and are kept apart here.

The data set in a line: Total and unbound QST in tumor and contralateral brain at survival end point, orthotopic GB126 PDX. It counts as in vivo. The note with it: for UNBOUND [QST], Brain / UNBOUND [QST], Plasma / UNBOUND [QST], Tumor: individual mice; for concentration at 3 h: athymic nude, mouse. As to the method:
All mice included in the survival study were processed for end-point PK and PD analyses once moribund. Plasma, tumor, and contralateral brain tissues were harvested 3 hours after dosing with 10 mg/kg QST, allowing for direct comparison of long-term treatment with the PK-PD data collected from acute (1-week) treatment with QST or combination therapy (Figure 8A). […] There were no significant differences in total or unbound drug concentrations in tumor or brain tissue between the monotherapy or combination therapy cohorts (Figure 8, E and F). Immunoblot analysis of dissected tumor samples confirmed that QST induced substantial histone H3 hyperacetylation in brain tumors, compared with untreated animals, consistent with an in vivo on-target effect (Figure 9, A and B).
QST concentrations in specimens were measured using reverse-phase LC on the AB SCIEX QTRAP6500+ LC-MS/MS system by operating electrospray in the positive ion mode. For liquid chromatographic separation, gradient elution was performed using a Phenomenex Kinetex F5 100 Å column (100 × 2.1 mm, 2.6 μm). The initial composition of the mobile phase was 70% phase A (0.1% formic acid in water) and 30% phase B (0.1% formic acid in 1:1 acetonitrile/methanol) with a 0.35 mL/min flow rate. Gradient elution was achieved as follows: mobile phase (B) was maintained at 30% from 0 to 0.3 minutes, increased to 95% from 0.3 to 0.8 minutes, maintained at 95% from 0.8 to 2.5 minutes, and decreased to 30% from 2.5 to 2.8 minutes. The total run time was 3.5 minutes. The internal standard used in this study was D8-infigratinib. The retention times for QST and D8-infigratinib were 1.6 and 1.8 minutes, respectively. Mass-to-charge ratio transitions were as follows: 395.20 → 144.00 (QST) and 568.08 → 321.00 (D8-infigratinib). LC-MS/MS analysis was performed using an Analyst 1.7 Chromatographic Data System. See Supplemental Methods for detailed PK experiments.
Gy on MWF for a total of 6 Gy in the first week of treatment. Treatment groups included vehicle (50% PEG-3000), QST (10 mg/kg) alone, 6 Gy whole-brain IR treatment with vehicle, and 6 Gy whole-brain IR treatment with 10 mg/kg QST. QST was administered to mice through intraperitoneal injections two hours prior to whole-brain radiation treatment. Upon completion of the radiation regimen, IR-treated mice subsequently received QST or vehicle alone for the rest of the experiment. Tumor growth and treatment response was monitored by IVIS bioluminescence […]
once per week. […]
Tissue from the hemisphere contralateral to the tumor was also collected as a normal brain/nontumor reference sample. For PK analyses, the mice were anesthetized with isoflurane, and at least 300 μL of blood was drawn from the right ventricle of the heart. The blood was collected in tubes containing 10 μL of 0.1 M KOH in EDTA to prevent blood coagulation. Blood samples were immediately centrifuged at 3000 rpm for 10 minutes at 4 °C to allow separation of plasma. After collection of the blood, the tumor was dissected out of the brain and flash -frozen.
Both plasma and erythrocytes were flash-frozen for subsequent analysis. […]
vortex-mixed for 10 s and centrifuged at 12000 g at 4 °C for 10 min. A 100-µL aliquot of the supernatant was transferred to an autosampler vial, and 5 µL was injected into the LC-MS/MS system for analysis. Whenever necessary, appropriate dilutions were made to accommodate the analysis of small volume samples.
Brain and Brain Tumor Sample Preparation
Normal brain and brain tumor tissue homogenates were prepared by 1:4 (mass/volume) ratio with PBS. Samples were homogenized under 6.00 m/s speed for 40 seconds with 3 cycles by Bead Ruptor Elite homogenizer (Omni International). Plasma was used as a surrogate matrix for brain/tumor homogenate. Brain homogenate samples from in vivo studies were prepared as described for plasma samples. Analyte and IS were extracted by protein precipitation with methanol containing IS. After centrifugation at 12000 rpm for 10 minutes at 4 °C, 5 µL of […]

Take `Cn1cc(CNCC2CCN(c3ncc(C(=O)NO)cn3)CC2)c2ccccc21` [QST, quisinostat]: the “UNBOUND [QST], Brain” value is 3.62 nM and 1.48 nM and 2.18 nM (Combination (QST + IR) cohort); 1.049 nM and 4.404 nM and 6.584 nM and 1.529 nM (QST cohort). For the same compound, the “UNBOUND [QST], Plasma” value by setting is: (Combination (QST + IR) cohort) 158.39 nM and 19.58 nM and 43.86 nM; (QST cohort) 35.734 nM and 100.413 nM and 74.395 nM and 209.24 nM. The “UNBOUND [QST], Tumor” value reads like this: (Combination (QST + IR) cohort) 66.7 nM and 35.51 nM and 128.5 nM and 21.89 nM and 23.43 nM; (QST cohort) 93.34 nM and 77.02 nM and 33.36 nM and 81.88 nM. For the same compound, the concentration at 3 h by setting is: (brain (contralateral to tumor), intraperitoneal, 10 mg/kg, Combo cohort, mean, read-out: Total QST, Brain, Mean) 48.5 nM; (brain (contralateral to tumor), intraperitoneal, 10 mg/kg, Combo cohort, mean, read-out: Unbound QST, Brain, Mean) 2.42 nM; (brain (contralateral to tumor), intraperitoneal, 10 mg/kg, QST cohort, mean, read-out: Total QST, Brain, Mean) 67.8 nM; (brain (contralateral to tumor), intraperitoneal, 10 mg/kg, QST cohort, mean, read-out: Unbound QST, Brain, Mean) 3.39 nM; (in vivo, orthotopic GB126, end point (moribund), 3 hours after 10 mg/kg, read-out: unbound QST in tumors, mean) 71.4 nM; (peritumoral (contralateral) brain tissue, intraperitoneal, 10 mg/kg, orthotopic GB126, end point (moribund), 3 hours after 10 mg/kg, read-out: unbound QST in peritumoral brain tissue, mean) 3.4 nM. Moreover, the concentration at 3 h turned out to be 141 nM (plasma, intraperitoneal, 10 mg/kg, Combo cohort, mean, read-out: Total QST, Plasma, Mean); 55.7 nM (plasma, intraperitoneal, 10 mg/kg, Combo cohort, mean, read-out: Unbound QST, Plasma, Mean); 265 nM (plasma, intraperitoneal, 10 mg/kg, QST cohort, mean, read-out: Total QST, Plasma, Mean); 105 nM (plasma, intraperitoneal, 10 mg/kg, QST cohort, mean, read-out: Unbound QST, Plasma, Mean); 1100 nM (tumor, intraperitoneal, 10 mg/kg, Combo cohort, mean, read-out: Total QST, Tumor, Mean); 55.2 nM (tumor, intraperitoneal, 10 mg/kg, Combo cohort, mean, read-out: Unbound QST, Tumor, Mean). In addition, the concentration at 3 h (tumor, intraperitoneal, 10 mg/kg, QST cohort, mean, read-out: Total QST, Tumor, Mean) turned out to be 1430 nM and the concentration at 3 h (tumor, intraperitoneal, 10 mg/kg, QST cohort, mean, read-out: Unbound QST, Tumor, Mean) turned out to be 71.4 nM.

The values are drawn from publication PMC10721329, “Quisinostat is a brain-penetrant radiosensitizer in glioblastoma” (JCI Insight, 2023).
